This is an account of results in patent US20150044193A1, “COMPOSITIONS AND METHODS FOR THE TREATMENT OF ALTERED a-SYNUCLEIN FUNCTION” (Neuraltus Pharmaceuticals, Inc., priority 2008, published 2015).

Data set [1] deals with α-synuclein. As to the kind of experiment: Western blot of α-synuclein in differentiated SH-SY5Y cells exposed to CBE. It is filed as cell-based, human. The method, then:
(§1) The treatment paradigm is depicted in FIG. 1. SH-SY5Y cells were grown in Dulbecco's modified Eagle medium with 10% fetal calf serum, 2 mM glutamine, and were subcultured 1:5 with TrypLE (GIBCO/Invitrogen; Carlsbad, Calif.) using standard tissue culture techniques. The cells were differentiated in neurobasal media supplemented with B-27 and 40 μM retinoic acid for 7 days (Pahlman et al., 1984). Cells were exposed to CBE at doses of 0, 12.5, 25, 50, 100 or 200 μM in dimethyl sulfoxide (DMSO; Sigma Chemicals; St. Louis, Mo.) for 48 h at 37° C. At this time, cultures were washed with HBSS and trypsinized for 10 min followed by centrifugation at 1,000×g for 10 min to pellet cells. Media was removed, and cells were lysed in 10 mM Tris/1 mM EDTA/protease inhibitor cocktail (1:1000; Sigma) by sonication. Samples were centrifuged at 1,000×g for 10 min; the supernatant fraction was decanted from particulate fraction. Following determination of protein concentration using the BCA protein assay (Pierce Chemicals, Rockford, Ill.), samples were frozen until used for Western blot analysis experiments.
Fractions from ventral mesencephalon separated by the centrifugation were utilized for immunoblotting experiments. Following homogenization in 10 mM Tris/1 mM EDTA/protease inhibitor cocktail (1:1000; Sigma, St. Louis, Mo.) by sonication, samples were centrifuged at 1,000×g for […]. The supernatant fraction (S1) was decanted and stored, and the pellet fraction containing nuclei and large membrane fragments were reconstituted in homogenization buffer (P1 fraction). The protein concentration was measured. After proteins were separated by SDS-PAGE and transferred to nitrocellulose, the blots were blocked and incubated overnight at 4° C. with anti-α-synuclein (Signet; Novus Biologicals, Littleton, Colo.; Abcam, Cambridge, Mass.; Santa Cruz Biotechnology, Santa Cruz, Calif.) or anti-GAPDH (Sigma). Appropriate secondary antibodies conjugated to HRP were applied, and blots were incubated with a chemiluminescent substrate (Pierce) and exposed to Kodak X-Omat Blue Film (Kodak, Rochester, N.Y.). Mouse or rabbit IgG was used in lieu of the primary antibody to ensure specificity in control experiments.
To test determine if the inhibition of GCase would elicit changes in cellular α-synuclein level, the protein levels were evaluated by using Western blot analysis in non-differentiated SH-SY5Y cells and cells differentiated to the neuronal phenotype, at 48 h following exposure to CBE. […] In order to determine whether increased levels of the protein were due to enhanced transcription, RT-PCR was performed to measure transcript levels in SH-SY5Y treated with CBE. […]
A general note: Immunoblotting shows a protein as a band on a membrane.

Data set [2] has as its system α-synuclein. In words: Western blot of α-synuclein in non-differentiated SH-SY5Y cells exposed to CBE. It is filed as cell-based, human. Particulars: non-differentiated neuroblastoma cells, 48 h exposure. The procedure:
as §1
To test determine if the inhibition of GCase would elicit changes in cellular α-synuclein level, the protein levels were evaluated by using Western blot analysis in non-differentiated SH-SY5Y cells and cells differentiated to the neuronal phenotype, at 48 h following exposure to CBE. […]

The test system of data set [3] is α-synuclein mRNA. As to the kind of experiment: RT-PCR of α-synuclein mRNA in SH-SY5Y cells treated with CBE. In kind it is cell-based, human. The procedure: […] The cDNAs were prepared by reverse transcription (Superscript III; Invitrogen). PCR was performed using the ABI PRISM 7000 Sequence Detection System and primers. The cycle number at which each PCR reaction reached a significant threshold (CT) during the log phase of the amplification was used as a relative measure of transcript expression. The CT of the α-synuclein gene was calibrated against that of the reference gene […].
To test determine if the inhibition of GCase would elicit changes in cellular α-synuclein level, the protein levels were evaluated by using Western blot analysis in non-differentiated SH-SY5Y cells and cells differentiated to the neuronal phenotype, at 48 h following exposure to CBE. […] In order to determine whether increased levels of the protein were due to enhanced transcription, RT-PCR was performed to measure transcript levels in SH-SY5Y treated with CBE. […] These findings indicate that increased α-synuclein levels observed following CBE exposure are not due to enhanced expression (FIG. 3b).

For the next data set, the system named is SH-SY5Y cells. In words: Overt toxicity in SH-SY5Y cells treated with GCase inhibitor. Particulars: SH-SY5Y cells treated with CBE. It is filed as cell-based, human.
For data set [4], the system named is α-synuclein. In words: Western blot of α-synuclein in ventral mesencephalon fractions of CBE-treated mice. The conditions noted are these: single i.p. 200 mg/kg, 48 h. In kind it is in vivo, C57BL/6 mice. The procedure: (§2) The administration paradigm is depicted in FIG. 2. Mice (C57BL/6) were maintained on a 12 h light-dark cycle and given food and drinking water ad libitum. All animal procedures and care methods were approved by the Institutional Animal Care and Usage Committee. In experiments to test the effects of CBE on α-synuclein protein, C57BL/6 male mice, aged 8 weeks, were used as previously described with some modifications (Kanfer et al., 1975, Adachi and Volk, 1977, Kanfer et al., 1982). Mice (n=8/group) received a single i. p. injection of 200 mg/kg CBE (Sigma) in DMSO or the vehicle alone and killed 2 days after injection. For Western blot analyses, brains were removed, dissected on ice and frozen on dry ice until needed (Manning-Bog et al., 2002, Purisai et al., 2005). For experiments utilizing immunohistochemistry, brains were immersion fixed in 4% paraformaldehyde and successively cryoprotected in 10 and 30% sucrose over the course of 72 h (Manning-Bog et al., 2002, Manning-Bog et al., 2003). Brains were sectioned at 40-μm intervals and stored in cryopreservative solution at −20° C. until needed.
Fractions from ventral mesencephalon separated by the centrifugation were utilized for immunoblotting experiments. Following homogenization in 10 mM Tris/1 mM EDTA/protease inhibitor cocktail (1:1000; Sigma, St. Louis, Mo.) by sonication, samples were centrifuged at 1,000×g for […]. The supernatant fraction (S1) was decanted and stored, and the pellet fraction containing nuclei and large membrane fragments were reconstituted in homogenization buffer (P1 fraction). The protein concentration was measured. […]
C57BL/6 mice were exposed to a single injection of CBE and assessed for changes in α-synuclein at 48 h to determine whether diminished GCase activity is associated with alterations in the protein in vivo, specifically within the substantia nigra. […] In tissue homogenates from ventral mesencephalon of CBE vs. DMSO (vehicle)-treated mice, α-synuclein immunoreactivity was assessed by Western blot analysis.

In data set [5] the test system is α-synuclein. In words: α-synuclein immunohistochemistry in brain of CBE-treated mice. In kind it is in vivo, C57BL/6 mice. Particulars: single 200 mg/kg, 48 h. The procedure: as §2, with “needed. […]” for “needed.”
The effects of CBE exposure on α-synuclein within the ventral mesencephalon were also assessed histologically with immunohistochemistry. […]

For a further data set, the system named is GFAP. As to the kind of experiment: GFAP immunohistochemistry (astroglial activation) in brain of CBE-treated mice. In kind it is in vivo, C57BL/6 mice. The conditions noted are these: single 200 mg/kg, 48 h. The method, then: as §2, with “Brains were sectioned at 40-μm intervals and stored in cryopreservative solution at −20° C. until needed.” left out
Substantia nigra-containing tissue sections were immunostained using an antibody for the astrocytic marker, glial fibrillary acidic protein (GFAP). […] Alternatively, it may be that upregulation is responsible for increased α-synuclein levels in astrocytes. α-synuclein has been detected in cultured human astrocytes, and its expression level is responsive to cytokine exposure (Tanji et al., 2001).

Data set [6] has as its system α-synuclein. As to the kind of experiment: α-synuclein in substantia nigra of aged mice treated sub-chronically with CBE. In kind it is in vivo. The conditions noted are these: sub-chronic CBE vs. DMSO. The text has this: It is likely that sustained glucocerebrosidase inhibition promotes increased levels of the α-synuclein expression protein.
The test system of another data set is nigral neurons. In words: Silver grain accumulation (degenerating neurons) in substantia nigra of CBE-treated mice. In kind it is in vivo. The conditions noted are these: CBE- vs. DMSO-treated mice.
The subject of data set [7] is α-synuclein mRNA. The conditions noted are these: astroglial cultures challenged with CBE; cited from earlier work.

Each structure is given as a SMILES string. Entries after “also recorded” stand apart in the source; their conditions may differ.

For the compound `O[C@H]1[C@H](O)[C@@H](O)[C@@H]2O[C@@H]2[C@@H]1O` (racemic) [CBE, Conduritol B epoxide], the “immunoreactivity for α-synuclein in tissue culture” value with α-synuclein [1] (CBE-exposed neuroblastoma cells differentiated to neuronal phenotype) is “increased immunoreactivity for α-synuclein”. Moreover, the “CBE concentrations at which increased α-synuclein levels were seen” value in the data set with α-synuclein [1] (differentiated SH-SY5Y cells, 48 h, Western blot) lay within 50 to 200 µM. Moreover, in the data set on α-synuclein [1] (differentiated SH-SY5Y cells, 48 h, doses 0-200 μM tested), the “dose at which increased α-synuclein protein levels peak” value was determined as 50 µM. Moreover, the “α-synuclein protein levels (Western blot)” value with α-synuclein [1] (differentiated SH-SY5Y cells, 48 h exposure, CBE vs. vehicle) is reported as “increased levels of α-synuclein protein were observed”; in the data set on α-synuclein [2], “No change in α-synuclein was detected”. Also, in the data set with α-synuclein mRNA [3] (SH-SY5Y, any dose tested, 24 h following CBE treatment), the “α-synuclein gene expression (RT-PCR)” value is recorded as “No change in α-synuclein gene expression was detected”. The “α-synuclein transcription (mRNA, RT-PCR)” value in the data set on α-synuclein mRNA [3] (differentiated SH-SY5Y, increasing concentrations of CBE, (FIG. 3B legend)) was “No change in α-synuclein transcription was detected”. In addition, the “overt toxicity within cells” value in the data set with SH-SY5Y cells is reported as “no overt toxicity”. In addition, the “higher molecular forms of α-synuclein (SDS-stable aggregates)” value in the data set on α-synuclein [4] was “No immunoreactivity for higher molecular forms of α-synuclein”. Further, in the data set on α-synuclein [4] (CBE vs. DMSO, 200 mg/kg), the “α-synuclein levels in P1 (particulate) fraction, monomeric 19 kDa band” value is “Denser α-synuclein-positive bands; also recorded: levels of α-synuclein were increased in the particulate fraction; also recorded: an increase in α-synuclein levels”. In addition, in the data set on α-synuclein [4] (CBE vs. DMSO, 200 mg/kg), the “α-synuclein levels in S1 (supernatant) fraction” value is “no alteration; also recorded: no change”. Moreover, in the data set on α-synuclein [5], the “α-synuclein in other brain regions (cortex, hippocampus)” value is “No obvious changes in α-synuclein; also recorded: No alteration in protein levels”. Moreover, the “α-synuclein immunoreactivity in substantia nigra neurons” value in the data set with α-synuclein [5] (CBE vs. vehicle) was “robust immunoreactivity was observed within the cell bodies; also recorded: enhanced immunoreactivity for α-synuclein was detected within the cytoplasm and cell nuclei; also recorded: accumulation of the protein within neuronal cell bodies; also recorded: apparent increase; also recorded: accumulation of α-synuclein (FITC) within cell bodies and processes”. The “α-synuclein within astrocytes of substantia nigra (dual-label immunofluorescence)” value in the data set on GFAP is “enhanced α-synuclein was also detected within activated astrocytes; also recorded: colocalization of α-synuclein immunoreactivity was observed within astrocytes”. In the data set with GFAP (CBE vs. vehicle), the “GFAP immunoreactivity / astroglial activation in substantia nigra” value is listed as “astroglial activation, as observed by GFAP immunoreactivity, was apparent; also recorded: apparent increase; also recorded: Glial activation was robust”. For the same compound, in the data set on α-synuclein [6], the “α-synuclein expression within substantia nigra” value is “Increased α-synuclein expression”. Moreover, in the data set on nigral neurons, the “silver grains in nigral neurons (degenerating neurons)” value was “Accumulation of silver grains in nigral neurons”. In addition, in the data set on α-synuclein mRNA [7], the “expression of α-synuclein mRNA” value is reported as “enhanced expression of α-synuclein mRNA”.
